Measurements from ChEMBL document CHEMBL1154793, “The lecanindoles, nonsteroidal progestins from the terrestrial fungus Verticillium lecanii 6144” (J Nat Prod, 2009).

Tests used:
Progesterone receptor = target: T1, Progesterone receptor (Homo sapiens, UniProt P06401); experiment: Activation of progesterone receptor in human T47D cells at 1 uM after 20 hrs by PRE-tagged luciferase reporter gene assay; assay type: cell-based
T1 sequence (P06401 whole entry): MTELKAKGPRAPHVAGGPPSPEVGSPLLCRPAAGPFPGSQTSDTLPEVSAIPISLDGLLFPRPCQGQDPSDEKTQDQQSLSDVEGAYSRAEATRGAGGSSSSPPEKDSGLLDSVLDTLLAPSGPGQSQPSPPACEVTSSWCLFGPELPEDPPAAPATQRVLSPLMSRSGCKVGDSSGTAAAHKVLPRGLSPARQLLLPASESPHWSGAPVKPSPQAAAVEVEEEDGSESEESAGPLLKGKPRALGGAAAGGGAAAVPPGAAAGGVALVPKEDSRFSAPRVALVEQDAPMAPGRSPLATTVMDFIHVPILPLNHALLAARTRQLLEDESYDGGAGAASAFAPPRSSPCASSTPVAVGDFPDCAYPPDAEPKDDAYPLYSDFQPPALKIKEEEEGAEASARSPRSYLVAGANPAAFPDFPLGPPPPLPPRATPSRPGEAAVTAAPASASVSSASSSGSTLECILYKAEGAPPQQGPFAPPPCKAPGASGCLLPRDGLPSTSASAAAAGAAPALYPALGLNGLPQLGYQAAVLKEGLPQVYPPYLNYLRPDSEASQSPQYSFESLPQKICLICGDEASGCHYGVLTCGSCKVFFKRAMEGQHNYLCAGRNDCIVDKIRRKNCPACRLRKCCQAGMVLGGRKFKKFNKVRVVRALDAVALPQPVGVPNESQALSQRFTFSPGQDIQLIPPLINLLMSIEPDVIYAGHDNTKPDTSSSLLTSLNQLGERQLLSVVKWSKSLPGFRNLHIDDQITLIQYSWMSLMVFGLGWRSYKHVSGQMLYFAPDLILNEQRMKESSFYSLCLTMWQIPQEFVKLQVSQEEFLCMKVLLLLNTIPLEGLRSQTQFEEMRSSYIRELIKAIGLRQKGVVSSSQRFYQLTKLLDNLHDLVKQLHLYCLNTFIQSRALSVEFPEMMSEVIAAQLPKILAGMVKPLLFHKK

[1] = target: T2, Progesterone receptor (Homo sapiens) (UniProt P06401); experiment: Activation of progesterone receptor in human T47D cells after 20 hrs by PRE-tagged luciferase reporter gene assay relative to control; assay type: cell-based
T2 sequence (whole entry): T1 sequence (P06401 whole entry)

Row | SMILES | EC50 (Progesterone receptor) | Efficacy [1]
1 | CC1(C)[C@@H](O)CC[C@]2(C)[C@@]3(C)c4[nH]c5ccccc5c4C[C@@H]3CC[C@@]12O | Not Active | –
2 | CC1(C)C(=O)C=C[C@]2(C)[C@@]3(C)c4[nH]c5ccccc5c4C[C@@H]3CC[C@@]12O | – | < 1%
3 | CO[C@H]1[C@H](O)[C@@H](O)[C@H](Oc2ccc3c4c([nH]c3c2)[C@@]2(C)[C@@H](CC[C@H]3C(C)(C)C(=O)C=C[C@@]32C)C4)O[C@@H]1CO | – | < 1%
